This note sets out measurements from ChEMBL document CHEMBL3421588, “Discovery of novel indirubin-3'-monoxime derivatives as potent inhibitors against CDK2 and CDK9” (Bioorg Med Chem Lett, 2015).

Structures are written as SMILES. pIC50: −log10 of the molar value. The source made the active and inactive calls. No cut-off for these calls is given here. Where only a bound is given, the exact number is not on record here.

Test [1] addresses CDK9/cyclin T1 (Homo sapiens) (UniProt O60563+P50750). As to the kind of experiment: Inhibition of against CDK9/cyclinT1 (unknown origin) at 10 uM using Ulight-CFFKNIVTPRTPPPSQGK-amide substrate and ATP incubated for 90 mins by fluorescence based assay. The class given is protein-complex assay.
Another test deals with CDK9/cyclin T1 (Homo sapiens, UniProt P50750). The test is described as follows: Inhibition of against CDK9/cyclinT1 (unknown origin) using Ulight-CFFKNIVTPRTPPPSQGK-amide substrate and ATP incubated for 90 mins by fluorescence based assay. The class given is protein-complex assay.
The nature of test [2]: Cytotoxicity against human HCT116 cells assessed as inhibition of cell growth by MTT assay. The class given is functional, cell-based, HCT-116. The conditions noted are these: for pIC50: Homo sapiens, HCT-116, read-out: IC50; for IC50: hct-116.
The test system of a further test is A2780. The test is described as follows: Cytotoxicity against human A2780 cells assessed as inhibition of cell growth by MTT assay. The class given is functional, cell-based. Conditions: for pIC50: Homo sapiens, A2780, read-out: IC50; for IC50: a2780. Background: Tetrazolium dyes change colour on reduction, which living cells bring about.
For the next test, the system named is HepG2. The test is described as follows: Cytotoxicity against human HepG2 cells assessed as inhibition of cell growth by MTT assay. The class given is functional, cell-based. Conditions: for pIC50: Homo sapiens, HepG2, read-out: IC50; for IC50: hepg2.
Test [3] is described as follows: Cytotoxicity against human BGC823 cells assessed as inhibition of cell growth by MTT assay. The class given is functional, cell-based, BGC-823. Conditions: for pIC50: Homo sapiens, BGC-823, read-out: IC50; for IC50: bgc-823.
Test [4] can be described thus: Cytotoxicity against human […] cells assessed as inhibition of cell growth by MTT assay. The conditions noted are these: for pIC50: Homo sapiens, read-out: IC50. The class given is functional, cell-based.
The target in test [5] is Cyclin-dependent kinase 2/cyclin E1 (Homo sapiens, UniProt P24941). As to the kind of experiment: Inhibition of against CDK2/cyclinE1 (unknown origin) using Ulight-CFFKNIVTPRTPPPSQGK-amide substrate and ATP incubated for 15 mins by fluorescence based assay. The class given is protein-complex assay.
The next test deals with BGC-823. As to the kind of experiment: Cytotoxicity against human BGC823 cells assessed as inhibition of cell growth at 10 uM by MTT assay. The class given is functional, cell-based.
For the next test, the species on record is Homo sapiens. As to the kind of experiment: Selectivity index, ratio of IC50 for CDK2/cyclinE1 (unknown origin) to IC50 for CDK9/cyclinT1 (unknown origin).

CDK9/cyclin T1, sequence (O60563 whole entry): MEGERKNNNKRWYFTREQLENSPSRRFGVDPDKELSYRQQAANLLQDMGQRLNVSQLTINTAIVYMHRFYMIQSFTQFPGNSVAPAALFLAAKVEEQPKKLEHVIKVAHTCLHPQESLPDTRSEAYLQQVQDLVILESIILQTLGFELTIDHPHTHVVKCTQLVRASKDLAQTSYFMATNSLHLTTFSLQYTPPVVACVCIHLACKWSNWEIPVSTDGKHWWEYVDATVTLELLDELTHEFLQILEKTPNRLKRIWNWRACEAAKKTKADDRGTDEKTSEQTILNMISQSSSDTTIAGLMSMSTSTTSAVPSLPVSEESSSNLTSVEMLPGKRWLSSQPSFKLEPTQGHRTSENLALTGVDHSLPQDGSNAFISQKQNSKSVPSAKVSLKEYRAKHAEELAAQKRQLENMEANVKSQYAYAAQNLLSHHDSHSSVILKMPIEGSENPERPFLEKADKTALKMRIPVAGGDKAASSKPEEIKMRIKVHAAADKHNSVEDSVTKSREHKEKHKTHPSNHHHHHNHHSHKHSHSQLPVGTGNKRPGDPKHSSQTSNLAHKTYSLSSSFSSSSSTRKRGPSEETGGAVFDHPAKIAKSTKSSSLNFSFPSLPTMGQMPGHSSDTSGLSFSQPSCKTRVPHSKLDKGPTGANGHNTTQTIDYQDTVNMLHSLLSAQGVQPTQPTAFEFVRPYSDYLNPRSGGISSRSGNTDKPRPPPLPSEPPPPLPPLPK
CDK9/cyclin T1, sequence (P50750 whole entry): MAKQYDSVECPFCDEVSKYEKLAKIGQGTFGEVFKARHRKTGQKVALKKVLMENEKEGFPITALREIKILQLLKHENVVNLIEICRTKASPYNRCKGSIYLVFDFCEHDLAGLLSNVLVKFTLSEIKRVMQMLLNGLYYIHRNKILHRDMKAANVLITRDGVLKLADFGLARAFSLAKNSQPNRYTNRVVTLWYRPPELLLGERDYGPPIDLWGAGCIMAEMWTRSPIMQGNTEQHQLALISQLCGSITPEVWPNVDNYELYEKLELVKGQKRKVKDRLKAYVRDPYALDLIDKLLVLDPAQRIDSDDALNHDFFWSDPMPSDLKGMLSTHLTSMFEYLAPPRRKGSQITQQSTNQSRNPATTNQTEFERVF

Regarding `Cc1ccc2c(c1)/C(=C1/Nc3cc(F)c(F)cc3/C1=N\O)C(=O)N2`, the inhibition (as a rule, the relative decrease from the control value, in per cent) in test [1] amounted to 65%.

Regarding `O=C1Nc2ccc([N+](=O)[O-])cc2/C1=C1/Nc2cc(F)c(F)cc2/C1=N\O`, the pIC50 (as a rule, the IC50 on a negative log10 scale, so that one unit is a factor of ten) was 6.15 at CDK9/cyclin T1; 5.67 in test [2]; 5.65 with A2780; 5.61 in the test with HepG2; 5.21 in test [3]; 5.66 in test [4]. In addition, the pIC50 in test [5] is 6.00. In test [1], this molecule had an inhibition of 89%.

In the case of `O=C1Nc2ccc(F)cc2/C1=C1/Nc2cc(F)c(F)cc2/C1=N\O`, the pIC50 was 5.77 against CDK9/cyclin T1; 6.03 in [2]; 5.63 with A2780; 5.57 in the test on HepG2; 5.02 in [3]; 5.57 in [4]. The negative logarithm of the IC50 (pIC50) in [5] is 5.57. In addition, in test [1], the inhibition came out at 85%.

For `O=Nc1c(-c2c(O)[nH]c3ccccc23)[nH]c2ccccc12` [INDIRUBIN-3-MONOXIME], the results for the pIC50 (against CDK9/cyclin T1; in test [5]) were 5.62 and 6.15, respectively. The molecule also yielded an inhibition in test [1] of 70%.

On to `COc1ccc2c(c1)/C(=C1/Nc3cc(F)c(F)cc3/C1=N\O)C(=O)N2`, for which the pIC50 at CDK9/cyclin T1 is 5.72; in test [5], 5.96. The molecule also returned an inhibition in test [1] of 81%.

Regarding `O=C1Nc2c(Cl)cc(Cl)cc2/C1=C1/Nc2cc(F)c(F)cc2/C1=N\O`, the IC50 result (in [2]; in the test with A2780; with HepG2; in [3]; in test [4]) was “Not Active” in each case. Besides, in [1], the inhibition is below 30%.

On to `CO/N=C1/C(=C2/C(=O)Nc3ccc([N+](=O)[O-])cc32)Nc2cc(F)c(F)cc21`, for which the IC50 result (in test [2]; in the test on A2780; with HepG2; in test [3]; in [4]) was “Not Active” in each case. The same molecule returned an inhibition in test [1] below 30%.

With `O=C1Nc2ccccc2/C1=C1/Nc2cc(F)c(F)cc2/C1=N\O`, the negative logarithm of the IC50 (pIC50) in test [2] is 5.63; in the test with A2780, 5.60; in the test on HepG2, 5.72; in test [3], 5.19; in [4], 5.52. In test [1], this molecule displayed an inhibition of 67%.

Take `COc1ccc2c(c1)/C(=C1/Nc3cc(F)c(F)cc3/C1=N\OCCO)C(=O)N2`: the pIC50 is 6.52 against CDK9/cyclin T1 and 6.40 in test [5]. The molecule further came in with an inhibition in test [1] of 84%.

For `Nc1ccc2c(c1)/C(=C1/Nc3cc(F)c(F)cc3/C1=N\O)C(=O)N2`, the pIC50 in test [2] was 5.24; in the test with A2780, 5.65; in the test with HepG2 it was 5.25; in [4], 5.60. Also, the inhibition in [1] was found to be 60%. Further, the “growth inhibition (GI)” value with BGC-823 is “inactive”.

`O=C1Nc2cc(Cl)ccc2/C1=C1/Nc2cc(F)c(F)cc2/C1=N\O` had an inhibition in [1] of 59%.

In the case of `O=C1Nc2ccc(OC(F)(F)F)cc2/C1=C1/Nc2cc(F)c(F)cc2/C1=N\O`, the results for the pIC50 (against CDK9/cyclin T1; in test [5]) were 5.25 and 5.39, respectively. Moreover, in test [1], the inhibition was 74%.

With `O=C1Nc2ccc([N+](=O)[O-])cc2/C1=C1/Nc2ccc(OC(F)(F)F)cc2/C1=N\O`, the IC50 entry (in test [2]; with A2780; in the test on HepG2; in test [3]; in test [4]) was “Not Active” in each case. In addition, the inhibition in [1] was below 30%.

For `CO/N=C1/C(=C2/C(=O)Nc3ccc(F)cc32)Nc2cc(F)c(F)cc21`, the IC50 result (in test [2]; in the test with A2780; with HepG2; in test [3]; in [4]) was “Not Active” throughout. The molecule further gave an inhibition in test [1] below 30%.

On to `O=C1Nc2c(Cl)cccc2/C1=C1/Nc2cc(F)c(F)cc2/C1=N\O`, for which the IC50 entry (in test [2]; in the test on A2780; in the test on HepG2; in [3]; in [4]) was “Not Active” throughout. Further, the inhibition in test [1] is below 30%.

For `O=C1Nc2c(cccc2C(F)(F)F)/C1=C1/Nc2cc(F)c(F)cc2/C1=N\O`, the IC50 result (in test [2]; with A2780; in the test with HepG2; in test [3]; in test [4]) was “Not Active” each time. Moreover, the inhibition in test [1] is below 30%.

Turning to `CN1C(=O)/C(=C2\Nc3cc(F)c(F)cc3\C2=N/O)c2ccccc21`, the negative logarithm of the IC50 (pIC50) in test [2] is 5.65; in the test on A2780, 5.39; in the test with HepG2, 5.60; in test [3] it was 5.04; in test [4], 5.56. For the same molecule, the inhibition in test [1] amounted to 52%.

For `O=C1Nc2ccc(F)cc2/C1=C1/Nc2ccc(OC(F)(F)F)cc2/C1=N\O`, the IC50 entry (in test [2]; with A2780; in the test on HepG2; in test [3]; in test [4]) was “Not Active” each time. For the same molecule, in test [1], the inhibition is below 30%.

In the case of `COc1ccc2c(c1)/C(=C1/Nc3ccc(OC(F)(F)F)cc3/C1=N\O)C(=O)N2`, the IC50 result (in test [2]; in the test with A2780; with HepG2; in [3]; in test [4]) was “Not Active” each time. In addition, in test [1], the inhibition was below 30%.

`O=C1Nc2ccc(Cl)cc2/C1=C1/Nc2cc(F)c(F)cc2/C1=N\O`: the values for the pIC50 (at CDK9/cyclin T1; in test [5]) were 6.40 and 5.19, respectively. The inhibition in test [1] amounted to 86%. In the test filed under Homo sapiens, the Ratio IC50 turned out to be 15.
